Measured values reported in patent US10570412B2, “Method of increasing resistance against soybean rust in transgenic plants by increasing the scopoletin content” (BASF PLANT SCIENCE COMPANY GMBH, priority 2015, dated 2020).
“Also recorded” adds a separate entry of the source.

Columns and labels:
Phakopsora pachyrhizi [1] = test: In vitro germination test of Phakopsora pachyrhizi spores on glass slides; format: cell-based; conditions: 6 h
Fusarium graminearum = format: cell-based; conditions: 1 mM scopoletin in PDA, compared with PDA+methanol
Phakopsora pachyrhizi [2] = test: In vivo spore germination test on Arabidopsis leaves; design: species or system Phakopsora pachyrhizi on Arabidopsis thaliana; conditions: 1 mM scopoletin, assessed 48 h after infection
Phakopsora pachyrhizi [3] = test: Soybean rust diseased leaf area on scopoletin-treated soybean plants; format: in vivo, Phakopsora pachyrhizi on soybean
Arabidopsis = test: Phytotoxic effect of scopoletin in Arabidopsis; format: in vivo; conditions: Arabidopsis plants treated with 1 mM scopoletin
Protocol: For pre-treatment experiments Arabidopsis plants were sprayed with—1 mM scopoletin (solved in H2O, 0.01% Tween-20); incubated for 6 h at short day conditions and subsequently inoculated with 1 mg/ml P. pachyrhizi uredospores. For co-treatment experiments spores of Phakopsora pachyrhizi were solved in 0.01% Tween-20 supplemented with 1 mM scopoletin. Following inoculation plants were covered with moistened plastic domes to ensure high humidity and incubated at short day conditions (see above). 24 h later plastic domes were removed and plants incubated at the same conditions for another 24 h. Leaves were harvested 2 dpi and destained on tissue soaked with a saturated (2.5 g/ml) chloralhydrate solution. Germination and penetration on destained leaves was determined by quantitative microscopic analysis.

soybean = test: Phytotoxic effect of scopoletin in soybean; conditions: soybean plants treated with scopoletin

Which results are given for `COc1cc2ccc(=O)oc2cc1O` [scopoletin]?
germination and appressorium formation of Phakopsora pachyrhizi spores (Phakopsora pachyrhizi [1]; 10 μM, 100 μM, 500 μM and 1 mM scopoletin in water, glass slides, dose dependent): decreases the germination and appressoria formation in a dose dependent manner; also recorded: strongly inhibited; spore germination in-vitro (Phakopsora pachyrhizi [1]; 1 mM scopoletin): completely abolishes spore germination; reduction of the Fusarium graminearum growth rate per day (Fusarium graminearum): 61%; germination of Phakopsora pachyrhizi spores on Arabidopsis leaves (Phakopsora pachyrhizi [2]; co-application with inoculation): drastically reduced formation of germinated spores; germination of Phakopsora pachyrhizi spores on Arabidopsis leaves (Phakopsora pachyrhizi [2]; co-application with inoculation, listed as Scopoletin): strongly inhibited; germination of Phakopsora pachyrhizi spores on Arabidopsis leaves (Phakopsora pachyrhizi [2]; pre-treatment 6 h before inoculation): drastically reduced formation of germinated spores; germination of Phakopsora pachyrhizi spores on Arabidopsis leaves (Phakopsora pachyrhizi [2]; pre-treatment 6 h before inoculation, listed as Scopoletin): strongly inhibited; diseased leaf area caused by Phakopsora pachyrhizi infection (Phakopsora pachyrhizi [3]; soy plants, 1 mM scopoletin, co-application, primary, first and second trifoliate leaves, 12 dpi): drastically reduced formation of infected leaf area; also recorded: strongly reduced; diseased leaf area caused by Phakopsora pachyrhizi infection (Phakopsora pachyrhizi [3]; soy plants, 1 mM scopoletin, pre-treatment 6 h before inoculation, primary, first and second trifoliate leaves, 12 dpi): drastically reduced formation of infected leaf area; also recorded: strongly reduced; diseased leaf area caused by Phakopsora pachyrhizi infection (Phakopsora pachyrhizi [3]; soybean leaves, co-application of 10 μM, 100 μM or 1 mM scopoletin, dose dependent): strongly reduced in a dose dependent manner; phytotoxic effect leading to pleiotropic effects (Arabidopsis): never observed any phytotoxic effect; phytotoxic effect leading to pleiotropic effects (soybean): never observed
